≈ marks a conversion by molar mass, not a printed value.
How the values were obtained:
Karpas299 = test: MTT antiproliferative assay, Karpas299 cells; assay type: cell-based; conditions: Homo sapiens, KARPAS-299
Procedure: (§1) All the cells were seeded in 96-well plates and incubated with 5% CO2 at 37 °C for 24 h. Next, the compounds and the reference were dissolved into the culture medium. The final concentration of DMSO in the medium was less than 0.5%. After the cells were treated with compounds for 48 h, the supernatant was removed and 5 mg/mL of a fresh prepared solution of MTT was added to each well and incubated with the cells at 37 °C for another 4 h. The medium was removed, and 100 μL of testing solution was added to each well. After an overnight incubation with 5% CO2 at 37 °C, the absorbance was measured at 490/630 nm by the microplate reader. The IC50 was calculated using GraphPad Prism version 6.0 software (San Diego, CA, USA) from the non-linear curve.

PC-3 = test: MTT antiproliferative assay, PC-3 cells; assay type: cell-based; conditions: Homo sapiens; PC-3, MTT
Procedure: as §1

A549 = test: MTT antiproliferative assay, A549 cells; assay type: cell-based; conditions: Homo sapiens; for inhibition at 2 µg/mL: A549, 2 μg/mL; for inhibition at 2 µg/mL / inhibition at 20 µg/mL: 48 h, MTT, read-out: Antiproliferative activity (growth inhibition, %); for inhibition at 20 µg/mL: A549, 20 μg/mL; for IC50: A549, MTT
Procedure: as §1

ALK = ALK (Homo sapiens, UniProt Q9UM73); test: Kinase activity determination (ELISA), ALK; assay type: biochemical; conditions: purified ALK, 10 μmol/L ATP solution, read-out: Inhibitory effect on ALK activity, IC50
Sequence of ALK (Q9UM73 19-1620): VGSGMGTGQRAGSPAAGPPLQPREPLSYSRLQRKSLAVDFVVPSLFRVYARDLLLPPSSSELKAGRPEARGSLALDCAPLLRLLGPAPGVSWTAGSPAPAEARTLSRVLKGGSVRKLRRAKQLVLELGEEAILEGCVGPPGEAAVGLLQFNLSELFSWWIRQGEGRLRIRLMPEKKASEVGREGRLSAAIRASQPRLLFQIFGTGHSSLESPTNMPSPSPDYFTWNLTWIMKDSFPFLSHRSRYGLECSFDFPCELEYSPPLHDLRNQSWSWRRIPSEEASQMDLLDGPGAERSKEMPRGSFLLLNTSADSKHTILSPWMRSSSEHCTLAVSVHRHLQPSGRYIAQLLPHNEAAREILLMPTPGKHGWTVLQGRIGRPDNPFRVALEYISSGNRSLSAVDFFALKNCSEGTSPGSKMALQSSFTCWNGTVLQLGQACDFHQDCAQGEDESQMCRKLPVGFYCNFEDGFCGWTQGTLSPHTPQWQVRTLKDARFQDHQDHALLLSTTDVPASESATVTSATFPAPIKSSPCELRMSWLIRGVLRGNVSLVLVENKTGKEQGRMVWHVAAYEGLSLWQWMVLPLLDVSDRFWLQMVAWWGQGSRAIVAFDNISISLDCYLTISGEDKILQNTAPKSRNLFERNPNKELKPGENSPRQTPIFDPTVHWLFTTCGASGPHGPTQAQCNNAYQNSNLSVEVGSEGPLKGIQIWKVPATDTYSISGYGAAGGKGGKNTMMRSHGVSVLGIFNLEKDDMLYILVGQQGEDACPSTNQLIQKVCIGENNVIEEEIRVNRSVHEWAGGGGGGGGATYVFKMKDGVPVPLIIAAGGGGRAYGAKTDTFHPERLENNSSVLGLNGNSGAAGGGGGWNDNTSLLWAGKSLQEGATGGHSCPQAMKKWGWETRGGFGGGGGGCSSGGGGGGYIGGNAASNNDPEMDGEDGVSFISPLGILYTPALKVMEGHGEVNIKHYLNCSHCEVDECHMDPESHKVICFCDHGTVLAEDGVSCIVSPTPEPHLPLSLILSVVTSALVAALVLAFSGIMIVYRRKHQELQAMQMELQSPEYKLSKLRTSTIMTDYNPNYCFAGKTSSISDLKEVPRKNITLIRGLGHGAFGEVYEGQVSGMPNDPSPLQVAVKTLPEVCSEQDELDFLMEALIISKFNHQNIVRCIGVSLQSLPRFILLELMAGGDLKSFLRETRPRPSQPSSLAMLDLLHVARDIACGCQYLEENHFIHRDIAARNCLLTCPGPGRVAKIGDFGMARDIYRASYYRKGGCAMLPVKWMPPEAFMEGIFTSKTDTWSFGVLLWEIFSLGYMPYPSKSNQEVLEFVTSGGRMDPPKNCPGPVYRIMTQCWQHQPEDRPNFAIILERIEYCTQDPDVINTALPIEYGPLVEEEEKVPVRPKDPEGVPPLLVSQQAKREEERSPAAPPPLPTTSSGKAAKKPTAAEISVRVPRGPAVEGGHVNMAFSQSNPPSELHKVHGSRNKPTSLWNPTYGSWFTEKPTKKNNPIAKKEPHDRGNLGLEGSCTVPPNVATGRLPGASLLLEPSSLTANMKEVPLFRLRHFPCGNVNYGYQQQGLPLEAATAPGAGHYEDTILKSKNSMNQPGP
Procedure: The effects of the compounds on the activities of the tyrosine kinase was determined using enzyme-linked immunosorbent assay (ELISA). Briefly, 20 μg/mL substrate [poly (Glu,Tyr)4:1], 50 μL aliquot of 10 μmol/L ATP solution diluted in kinase buffer (50 mmol/L HEPES pH 7.5, 50 mmol/L MgCl2, 0.5 mmol/L MnCl2, 0.2 mmol/L Na3VO4, and 1 mmol/L DTT) was added to each well; 1 μL of various concentrations of target compound and positive control drug diluted in 1% DMSO (v/v) were then added to each well. 1% DMSO was used as the negative control. After 5–10 min preincubation, the kinase reaction was initiated by the addition of purified ALK proteins diluted in 49 μL of kinase buffer. After 30 min preincubation, the anti-phosphotyrosine monoclonalantibody (100 μL; 1:500, diluted in 5 mg/mL BSA T-PBS) was then added. […] A 100 μL aliquot of a solution containing 0.03% H2O2 and 2 mg/mL o-phenylenediamine in 0.1 mol/L citrate buffer was added. The reaction was terminated by the addition of 50 μL of 2 mol/L H2SO4 as the color changed, and the plate was analyzed using a multi-well spectrophotometer at 490 nm.

MCF-7 = test: MTT antiproliferative assay, MCF-7 cells; assay type: cell-based; conditions: Homo sapiens, MCF7; MCF-7, MTT
Procedure: as §1

HT29 = test: MTT antiproliferative assay, HT29 cells; assay type: cell-based; conditions: Homo sapiens, HT-29; for inhibition at 2 µg/mL: HT29, 2 μg/mL; for inhibition at 2 µg/mL / inhibition at 20 µg/mL: 48 h, MTT, read-out: Antiproliferative activity (growth inhibition, %); for inhibition at 20 µg/mL: HT29, 20 μg/mL; for IC50: HT29, MTT
Procedure: as §1

HepG2 [1] = test: MTT antiproliferative assay, HepG2 cells; assay type: cell-based; conditions: Homo sapiens
Procedure: as §1

HepG2 [2] = test: MTT antiproliferative assay, HepG2 cells; assay type: cell-based, human; conditions: five concentrations, 24, 48 or 72 h, Figure 7
LO2 cells = test: MTT cytotoxicity assay, non-tumorigenic liver LO2 cell; assay type: cell-based; conditions: 0.064–40.0 μg/mL, 48 h, Figure 8
Procedure: Given the mentioned results, the most efficient compound 3j was selected for in depth study, and it was evaluated in different concentrations (0.064–40.0 μg/mL) towards HepG2 cell line and non-tumorigenic liver LO2 cell. A 48 h continuous drug exposure protocol was employed by the MTT cytotoxicity assay.
as §1

| melting point [°C] | IC50 (Karpas299) [µg/mL] | IC50 (PC-3) [µg/mL] | IC50 (A549) [µg/mL] | IC50 (ALK) [nM] | IC50 (MCF-7) [µg/mL] | IC50 (HT29) [µg/mL] | IC50 (HepG2 [1]) [µg/mL] | SMILES | inhibition at 2 µg/mL (A549) [%] | inhibition at 20 µg/mL (A549) [%] | inhibition at 2 µg/mL (HT29) [%] | inhibition at 20 µg/mL (HT29) [%] | Inhibition of proliferation of HepG2 cell, concentration and time dependence (HepG2 [2]) | Toxic action towards LO2 cells (LO2 cells) |
| --- | --- | --- | --- | --- | --- | --- | --- | --- | --- | --- | --- | --- | --- | --- |
| 248.8 to 251.7 | 9.16 (≈ 12.6 µM) | 10.3 (≈ 14.2 µM) | 2.93 (≈ 4.04 µM) | 278 | 7 (≈ 9.64 µM) | 6.47 (≈ 8.91 µM) | 11.2 (≈ 15.5 µM) | CC1(C)C2CC[C@]3(C)[C@H](C(=O)C=C4[C@@H]5C[C@@](C)(C(=O)O)CC[C@]5(C)CC[C@]43C)[C@@]2(C)CC[C@@H]1OC(=O)Nc1cc(C(F)(F)F)cc(C(F)(F)F)c1 (stereo partly drawn) [3k, 3β-(((3,5-bis (trifluoromethyl)phenyl)carbamoyl)oxy)-11-oxo-olean-12-en-30-oic acid] | 18.8 | 88.8 | 10.8 | 94.8 |  |  |
| 239.1 to 240.7 | 5.59 (≈ 8.5 µM) | 5.96 (≈ 9.06 µM) | 2.81 (≈ 4.27 µM) | 121 | 5.26 (≈ 8 µM) | 3.19 (≈ 4.85 µM) | 5.55 (≈ 8.44 µM) | CC1(C)C2CC[C@]3(C)[C@H](C(=O)C=C4[C@@H]5C[C@@](C)(C(=O)O)CC[C@]5(C)CC[C@]43C)[C@@]2(C)CC[C@@H]1OC(=O)Nc1cccc(C(F)(F)F)c1 (stereo partly drawn) [3j, 3β-(((3-(trifluoromethyl)phenyl)carbamoyl)oxy)-11-oxo-olean-12-en-30-oic acid] | 17.7 | 88.3 | 24.8 | 99.6 | inhibited the proliferation of HepG2 cell in a significant concentration manner, whereas it did not occur in a time-dependent manner | did not exhibit significant toxic action |

Reference: publication PMC6803848, “Exploring New Structural Features of the 18β-Glycyrrhetinic Acid Scaffold for the Inhibition of Anaplastic Lymphoma Kinase” (Molecules, 2019)
